Data from PubChem BioAssay (NCI).
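How tested: cells in 96-well plates exposed to compound for 48 hours at five concentrations. Abbreviation: GI50, concentration required for 50% inhibition of growth. TGI denotes the concentration required for complete inhibition of growth.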

Legend:
Test in all cases: NCI anticancer screen, dose series, 48 h
[1] = system: SF-295 CNS
[2] = system: HCT-15 colon
[3] = system: RPMI-8226 leukemia
[4] = system: HL-60(TB) leukemia
[5] = system: COLO 205 colon
[6] = system: 786-0 renal
[7] = system: SNB-19 CNS
[8] = system: LOX IMVI melanoma
[9] = system: NCI-H460 lung
[10] = system: A549 NSCLC

Row | Compound | GI50 [1] | TGI [1] | GI50 [2] | TGI [2] | GI50 [3] | TGI [3] | GI50 [4] | TGI [4] | GI50 [5] | TGI [5] | GI50 [6] | TGI [6] | GI50 [7] | TGI [7] | GI50 [8] | TGI [8] | GI50 [9] | TGI [9] | GI50 [10] | TGI [10]
1 | CC1=C(C(=O)Nc2ccc(Cl)c(Cl)c2)C(c2ccccc2O)NC(=O)N1 (stereo not given) | 40.3 µM | > 50 µM | > 50 µM | > 50 µM | 34.8 µM | > 50 µM | > 50 µM | > 50 µM | 28.3 µM | > 50 µM | > 50 µM | > 50 µM | > 50 µM | > 50 µM | 33.4 µM | > 50 µM | > 50 µM | > 50 µM | > 50 µM | > 50 µM
2 | CCCCCCCCCCCCOP(N)(=O)OCCCCCCCCCCCC |  | > 100 µM |  | > 100 µM |  | > 100 µM |  | > 100 µM |  | > 100 µM |  | > 100 µM |  | > 100 µM |  | > 100 µM |  | > 100 µM |  | > 100 µM
3 | CC(=O)C1C(=O)N(C(C)C)C[C@@H]2CCC(=O)C[C@H]12 (stereo not given in full) |  | > 100 µM |  | > 100 µM |  | > 100 µM |  | > 100 µM |  | > 100 µM |  | > 100 µM |  | > 100 µM |  | > 100 µM |  | > 100 µM |  | > 100 µM
4 | C#CCN(Cc1ccc2nc(N)[nH]c(=O)c2c1)c1ccc(C(=O)NC(CCC(=O)O)C(=O)O)cc1 (stereo not given) |  | > 100 µM |  | > 100 µM |  | > 100 µM |  | > 100 µM |  | > 100 µM |  | > 100 µM |  | > 100 µM |  | > 100 µM |  | > 100 µM |  | > 100 µM
5 | CC1(C)OC2C(COS(N)(=O)=O)SC(n3cnc4cncnc43)C2O1 (stereo not given) | > 100 µM | > 100 µM | > 100 µM | > 100 µM | > 100 µM | > 100 µM | > 100 µM | > 100 µM | > 100 µM | > 100 µM | > 100 µM | > 100 µM | > 100 µM | > 100 µM | > 100 µM | > 100 µM | > 100 µM | > 100 µM | > 100 µM | > 100 µM
6 | Cc1nc(-n2nc(-c3ccccc3)cc2-c2ccccc2)sc1C(/C=C/c1ccc([N+](=O)[O-])cc1)=N/NC(=O)c1ccncc1 |  | > 100 µM |  | 96.2 µM |  | > 100 µM |  | 36.7 µM |  | 58.4 µM |  | 37 µM |  | > 100 µM |  | 48.8 µM |  | > 100 µM |  | > 100 µM
7 | Oc1ccc(Cl)cc1Cc1cc(Cl)ccc1O | 2.27 µM | 6.09 µM | 3.26 µM | 12.3 µM | 1.53 µM | 5.1 µM | 2.42 µM | 6.05 µM | 13.7 µM | 26.8 µM | 3.85 µM | 14.3 µM | 3.52 µM | 15 µM | 2.82 µM | 8.51 µM | 3 µM | 10.7 µM | 2.95 µM | 11.1 µM
